In US12582720B2, “Compound for preventing or treating lipid metabolism-related diseases” (Fudan University, priority 2020, dated 2026):

How the values were obtained:
[1] = test system: lipid droplets in SH-SY5Y cells; experiment: Reduction of OA-induced lipid droplets in SH-SY5Y cells; assay type: cell-based, human; settings: unconjugated compound 5 μM
Text: The reduction of lipid droplets in SH-SY5Y cells by Compound 1A and Compound 2A was detected by a method that was similar to Example 2, and the result was shown in FIG. 18.
The effects of unconjugated LC3 binding Compound A1, A5 and unconjugated lipid droplet probe ORBB […] respectively on lipid droplets in SH-SY5Y cells (FIG. 20A) and MEF cells (FIG. 20B) were detected by a method similar to Example 2.

[2] = test system: autophagosome-lipid droplet colocalization in MEF cells; experiment: Colocalization of autophagosome and lipid droplets in mCherry-LC3B transfected MEF cells; assay type: cell-based, mouse; settings: 5 μM, 3 h, compared to DMSO control
Method in brief: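 mCherry-LC3B expressed in MEF cells by plasmid transfection; lipid droplets induced with OA at 30 h post-transfection, compound added 6 h later for 3 h. Cells fixed, stained with BODIPY and DAPI, and LC3 puncta around lipid droplets imaged by confocal microscopy.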

[3] = test system: lipid droplets in human normal liver cell line QSG7701; experiment: Endogenous lipid droplets in human normal liver cell line QSG7701; assay type: cell-based; settings: QSG7701, no induction, 5 μM, 24 h
Protocol: 10% FBS+90% RPMI 1640 culture medium was used for cultivation, cell incubator culture condition of 37° C. and 5% CO2 was used. Cells were plated as 50 thousands/well (12 well plate was plated with aseptic treated slides). When cells grew to a confluence of 80-90%, the compound (Compound 1A or Compound 2A, at a concentration of 5 μM) was added for treatment, and LC3 binding Compound A1, A5, lipid droplet probe Sudan IV as well as DMSO acted as a control. […]. In the compounds of present disclosure, LC3 binding moiety was covalently linked with lipid droplet binding moiety, and thus could achieve the effect of reducing liver cell endogenous lipid droplet.

[4] = molecular target: LC3 (Homo sapiens, UniProt Q9GZQ8); settings: reported by Li et al., Nature 575, 203-209 (2019); cited from earlier work
[5] = molecular target: LC3B (Homo sapiens, UniProt Q9GZQ8); experiment: MST detection of affinity activity with LC3B; assay type: binding; set-up: His8 (with TEV site) (N); made in house; host or cells: Escherichia coli BL21(DE3)pLysS; settings: MST; read-out: Kd, equilibrium dissociation constant between the LC3 binding compound and LC3B
Method in brief: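 Microscale thermophoresis uses recombinant GST-LC3B labelled with RED-NHS fluorophore at 500 nM. Buffer is 20 mM HEPES pH 7.4 with 150 mM NaCl. Readings are taken at 40% infrared laser power and 20% LED power.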

SMILES: O=C1Nc2ccc(I)cc2C1=Cc1cc(Br)c(O)c(Br)c1 [Compound A1, 3-(3,5-dibromo-4-hydroxylbenzylidene)-5-iodoindolin-2-one, reference compound]
- lipid droplets (number and size) [1]: did not significantly decrease or become smaller
- ratio of colocalization of red and green aggregation point (autophagosome-lipid droplet) [2]: No such effect
- endogenous lipid droplets (amount) [3]: no significant effect
- binding to LC3 [4]: can bind to LC3 with affinity
- Kd [5]: 4.76 µM
